Results published in patent US20040063790A1, “Methods for inhibition of angiogenesis” (The Scripps Research Institute, priority 1996, published 2004).
[ ]: non-standard residue; d: D form.

Assays:
[1] = biological target: T1, immobilized αvβ3 receptor (Homo sapiens, UniProt P05106+P06756); assay: Ligand receptor binding assay with ELISA detection
T1 construct: selected purified integrins were separately immobilized in Titertek microtiter wells
Protocol: In addition, the ability of peptides to inhibit the binding of either MMP-2 or VN to immobilized αvβ3 was assessed with peptides 69601 (SEQ ID NO: 6) and 66203 (SEQ ID NO: 5).

[2] = test system: bFGF-induced angiogenesis; assay: CAM assay, growth factor-induced angiogenesis, intravenous application; format: in vivo, chick; details: for inhibition of bFGF-induced angiogenesis (branch points): intravenous 18 hours after bFGF induction, FIG. 12
Protocol: J. Pathol., 79:597 (1975). CAMs were prepared from chick embryos for subsequent induction of angiogenesis and inhibition thereof as described in Examples 4 and 5, respectively. Ten day old chick embryos were obtained from McIntyre Poultry (Lakeside, Calif.) and incubated at 37° C. with 60% humidity. A small hole was made through the shell at the end of the egg directly over the air sac with the use of a small crafts drill (Dremel, Division of Emerson Electric Co. Racine Wis.). A second hole was drilled on the broad side of the egg in a region devoid of embryonic blood vessels determined previously by candling the egg. […] A 1.0 centimeter (cm)×1.0 cm square window was cut through the shell over the dropped CAM with the use of a small model grinding wheel (Dremel). The small window allowed direct access to the underlying CAM.
Angiogenesis was induced by placing a 5 millimeter (mm)×5 mm Whatman filter disk (Whatman Filter paper No.1) saturated with Hanks Balanced Salt Solution (HBSS, GIBCO, Grand Island, N.Y.) or HBSS containing 150 nanograms/milliliter (ng/ml) recombinant basic fibroblast growth factor (bFGF) (Genzyme, Cambridge, Mass.) on the CAM of a 10-day chick embryo in a region devoid of blood vessels and the windows were latter sealed with tape. In other assays, 125 ng/ml bFGF was also effective at inducing blood vessel growth. For assays where inhibition of angiogenesis ws evaluated with intravenous injections of antagonists, angiogenesis was first induced with 1-2 μg/ml bFGF in fibroblast growth medium. Angiogenesis was monitored by photomicroscopy after 72 hours. CAMs were snap frozen, and 6 um cryostat sections were fixed with acetone and stained by immunofluorescence as described in Example 3C with 10 μg/ml of either anti-β1 monoclonal antibody CSAT or LM609.
For CAM preparations in which angiogenesis was induced with 1-2 μg/ml bFGF as previously described, synthetic peptides 69601 (control) and 66203 (SEQ ID NO: 5) were separately intravenously injected into CAM preparations 18 hours after bFGF induction of angiogenesis. The preparations were maintained for an additional 36-40 hours after which time the number of branch points were determined as previously described.
In other assays, peptide 85189 (SEQ ID NO: 15) was evaluated for inhibiting bFGF-induced angiogenesis in the CAM assay over a dosage range of 10 μg/embryo to 300 μg/embryo. The assay was performed as previously described.
In still further assays, peptide 85189 was compared to peptides 69601 and 66203 for anti-angiogenesis activity. The assay was performed as described above with the exception that 50 μg peptide were used.
The effectiveness of the different salt formulations of peptide 85189 was also evaluated in similar bFGF-induced CAM assays. The peptides were used at 100 μg/embryo. […] Untreated CAMs, labeled as “no cytokine” had approximately […] as many branch points as that seen with bFGF treatment, respectively 70 versus 190.
With the above-described protocol, the effect of MMP-2 fusion proteins, CTMMP-2(2-4), also referred to as CTMMP-2(445-467) and CTMMP-2(10-1), also referred to as CTMMP-2(274-637) was also evaluated. The assay was performed as previously described with the exception that 50 μg of fusion protein was administered to the bFGF-treated embryos. The effect of fusion protein treatment was assessed at 24 hours, 48 hours and 72 hours.
The 10 day old CAM preparation was used as previously described in Example 5A. Twenty-four hours after bFGF-induced angiogenesis was initiated, the organic peptidomimetics referred to as compounds 16 (81218), 17 (87292) and 18 (87293) were separately intravenously injected into the CAM preparation in a volume of 100 μl at a concentration of 1 mg/ml (100 μg/embryo) in 20% tetraglycol-PBS at pH 7.0. In parallel assays, compounds 7 (96112), 9 (99799), 10 (96229), 12 (112854) and 14 (96113) were similarly evaluated. […]

[3] = test system: human M21-L melanoma tumor; assay: Tumor regression in the CAM assay, M21-L; format: in vivo, chick
Protocol: As described in Example 5, in addition to visually assessing the effect of anti-αvβ3 antagonists on growth factor or tumor induced angiogenesis, the effect of the antagonists was also assessed by measuring any changes to the tumor mass following exposure. For this analysis, the tumor-induced angiogenesis CAM assay system was prepared as described in Example 4C. At the end of the 7 day incubation period, the resulting tumors were resected from the CAMs and trimmed free of any residual CAM tissue, washed with 1 ml of phosphate buffer saline and wet weights were determined for each tumor.
To further assess the effects of αvβ3 antagonists on tumor growth and survival, fragments of human melanoma and fragments of carcinomas of the lung, pancreas, and larynx were placed on CAMS of 10-day old embryos as described in Example 3A.
Human M21-L melanoma tumor fragments (50 mg) were implanted on the CAMs of 10 day old embryos as described in Example 3A and 3C. Twenty four hours later, embryos received a single intravenous injection of 300 μg/100 μl of either the cyclo-RADfV (69601) and or cyclo-RGDfV (66203). After a total of 72 hours, tumors were removed, examined morphologically, and photographed with a stereo microscope.
Additional tumor regression assays were performed with the αvβ3-reactive peptide 85189 (SEQ ID NO: 15) against 69601 as a control. […]

vascular cell apoptosis = assay: Apoptosis in bFGF-treated CAM, Apop Tag staining; format: in vivo, chick; details: 300 μg/ml; treated two days prior; versus PBS or control peptide 69601
Protocol: CAM assays with growth factor-induced angiogenesis, as described in Example 4A, were also performed with the synthetic peptides of this invention to determine the effect of cyclic peptides on apoptosis. The peptides cyclo-RGDfV (66203) and cyclo-RADfV (69601) were prepared as described in Example 1. The peptide solutions or PBS were injected into the CAM preparation at a concentration of 300 μg/ml. At 24 and 48 hours, the filter paper and surrounding CAM tissue was dissected and stained with the Apop Tag to detect apoptosis.

T1 sequence (P06756 31-889 limits assumed): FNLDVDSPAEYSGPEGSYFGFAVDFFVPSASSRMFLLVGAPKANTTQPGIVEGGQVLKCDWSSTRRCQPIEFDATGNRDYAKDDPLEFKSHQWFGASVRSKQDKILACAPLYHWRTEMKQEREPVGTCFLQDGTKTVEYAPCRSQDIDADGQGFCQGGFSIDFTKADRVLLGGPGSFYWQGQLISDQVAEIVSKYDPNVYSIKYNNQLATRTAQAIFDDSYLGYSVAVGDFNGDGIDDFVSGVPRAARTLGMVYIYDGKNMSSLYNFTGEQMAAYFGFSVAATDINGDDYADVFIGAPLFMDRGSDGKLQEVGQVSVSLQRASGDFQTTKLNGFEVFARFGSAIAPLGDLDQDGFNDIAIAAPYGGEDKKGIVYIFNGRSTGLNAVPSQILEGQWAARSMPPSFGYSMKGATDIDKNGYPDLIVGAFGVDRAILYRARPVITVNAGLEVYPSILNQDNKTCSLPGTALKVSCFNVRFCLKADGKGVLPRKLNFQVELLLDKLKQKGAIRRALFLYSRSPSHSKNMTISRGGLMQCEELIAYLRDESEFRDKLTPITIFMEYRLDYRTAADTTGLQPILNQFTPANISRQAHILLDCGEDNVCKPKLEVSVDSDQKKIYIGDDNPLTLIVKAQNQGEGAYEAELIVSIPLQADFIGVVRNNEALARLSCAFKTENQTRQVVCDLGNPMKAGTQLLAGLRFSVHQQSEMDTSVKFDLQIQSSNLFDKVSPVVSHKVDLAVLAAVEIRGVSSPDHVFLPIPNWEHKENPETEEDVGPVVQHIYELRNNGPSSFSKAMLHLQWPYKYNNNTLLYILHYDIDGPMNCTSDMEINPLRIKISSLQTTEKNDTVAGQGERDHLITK
T1 sequence (P06756 891-1048 partner limits assumed): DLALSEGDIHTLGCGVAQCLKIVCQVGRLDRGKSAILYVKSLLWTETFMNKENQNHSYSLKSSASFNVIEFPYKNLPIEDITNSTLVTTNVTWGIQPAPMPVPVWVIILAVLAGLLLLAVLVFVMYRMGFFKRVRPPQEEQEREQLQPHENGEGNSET
T1 sequence (P05106 27-788): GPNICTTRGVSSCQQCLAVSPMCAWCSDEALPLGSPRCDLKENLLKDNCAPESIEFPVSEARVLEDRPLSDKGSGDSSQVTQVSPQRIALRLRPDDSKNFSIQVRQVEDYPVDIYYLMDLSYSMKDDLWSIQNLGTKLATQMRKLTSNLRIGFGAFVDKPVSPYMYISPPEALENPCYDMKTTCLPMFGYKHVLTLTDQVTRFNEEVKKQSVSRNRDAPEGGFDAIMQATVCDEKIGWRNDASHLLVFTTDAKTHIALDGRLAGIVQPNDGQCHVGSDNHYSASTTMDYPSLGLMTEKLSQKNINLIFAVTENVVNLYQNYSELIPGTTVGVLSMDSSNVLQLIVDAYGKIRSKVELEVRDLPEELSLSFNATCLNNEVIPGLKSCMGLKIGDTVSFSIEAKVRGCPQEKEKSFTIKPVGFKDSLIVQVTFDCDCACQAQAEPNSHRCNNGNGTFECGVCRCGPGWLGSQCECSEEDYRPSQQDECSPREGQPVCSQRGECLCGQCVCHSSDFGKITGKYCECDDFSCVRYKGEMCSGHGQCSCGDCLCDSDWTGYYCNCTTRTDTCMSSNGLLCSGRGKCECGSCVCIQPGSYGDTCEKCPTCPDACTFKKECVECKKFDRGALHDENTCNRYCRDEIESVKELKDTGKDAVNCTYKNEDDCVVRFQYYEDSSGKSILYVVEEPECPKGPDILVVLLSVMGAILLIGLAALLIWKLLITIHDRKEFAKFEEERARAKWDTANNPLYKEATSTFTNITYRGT

cyclo (RADfV) (cyclo(RAD[dF]V); SMILES CC(C)[C@@H]1NC(=O)[C@@H](Cc2ccccc2)NC(=O)[C@H](CC(=O)O)NC(=O)[C@H](C)NC(=O)[C@H](CCCNC(=N)N)NC1=O) [Peptide 69601, reference compound]
inhibition of binding of MMP-2 or VN to immobilized αvβ3 [1]: failed to have an effect with either ligand
inhibition of bFGF-induced angiogenesis, salt formulations ([2]; 100 μg/embryo): no effect on inhibiting angiogenesis
number of branch points ([2]; 100 μg/embryo, bFGF alone 190, no cytokine 70): 230 branch points
inhibition of bFGF-induced angiogenesis (branch points) [2]: absence of inhibition
effect on tumor weight, M21-L ([3]; 100 μg intravenously 18 hours post-implantation, FIG. 16): lack of effect

cyclo (RGDfV) [Peptide 66203]
inhibition of binding of MMP-2 or VN to immobilized αvβ3 [1]: effective at inhibiting the binding of either substrate
inhibition of bFGF-mediated angiogenesis ([2]; 50 μg peptide, FIG. 14): effective inhibitors of bFGF-mediated angiogenesis
inhibiting angiogenesis, HCl versus TFA peptide ([2]; assays of Example 5): slightly more effective
inhibition of bFGF-induced angiogenesis (branch points) [2]: completely inhibited
inhibition of vessel formation in tumor ([3]; single intravenous injection of 300 μg/100 μl, 72 hours): inhibited vessel formation
increase in Apop Tag staining (vascular cell apoptosis): 3 to 4 fold
